The record followed here is patent publication US10155732B2, “Ribonucleotide reductase inhibitors and methods of use” (City of Hope, priority 2012, dated 2018).

Several values for one entry are separate records, joined by “and”; a condition that tells them apart may be missing. Equal values may be shown once. Read-outs that look alike come from different tables or passages of the source.

The target of series [1] is recombinant RRM1/RRM2 complex (Homo sapiens (Human), UniProt P31350). The series can be described thus: in vitro holoenzyme-based RR assay, [3H]CDP reduction by HPLC. The class given is biochemical. The settings on record: for inhibition of native RRM1/RRM2 activity in vitro screen: screen of top 80 virtual screening candidates. The text has this: Compounds that docked into the ligand binding pocket were identified using the TRIPOS FlexX docking tool and ranked using an embedded consensus docking score. […] The assay utilized recombinant RRM1/RRM2 or RRM1/RRM2 complex and measured [^3H]CDP reduction activity (i.e., CDP to dCDP) by HPLC.
Chain of recombinant RRM1/RRM2 complex (P31350 whole entry, one chain of several): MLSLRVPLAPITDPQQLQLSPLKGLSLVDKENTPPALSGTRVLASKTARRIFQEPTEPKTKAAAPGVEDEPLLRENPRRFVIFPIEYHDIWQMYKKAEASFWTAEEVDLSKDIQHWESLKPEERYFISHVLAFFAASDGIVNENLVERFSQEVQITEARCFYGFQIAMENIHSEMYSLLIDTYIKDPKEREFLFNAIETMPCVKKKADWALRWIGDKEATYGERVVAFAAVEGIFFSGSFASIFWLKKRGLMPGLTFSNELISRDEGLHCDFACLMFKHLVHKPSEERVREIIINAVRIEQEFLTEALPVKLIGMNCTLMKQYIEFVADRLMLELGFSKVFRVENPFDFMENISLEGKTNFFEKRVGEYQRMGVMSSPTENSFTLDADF

Another series deals with human leukemia REH cells. In words: MTT cytotoxicity assay. Particulars: 72 hours. The class given is cell-based. The procedure: (§1) The in vitro cytotoxicity of COH4 and COH20 towards human leukemia REH and MOLT-4 cells, human prostate cancer LNCaP cells, human oropharyngeal cancer KB cells, and normal fibroblast NHDF cells was evaluated using an MTT assay. 5,000 cells were seeded on six-well plates for 72 hours with various concentrations of drug. COH20 was cytotoxic to the cancer cell lines at less than 10 μM, while causing less cytotoxicity to normal cells than 3-AP.
(In general: Tetrazolium dyes change colour on reduction, which living cells bring about.)

Series [2] concerns human oropharyngeal cancer KB cells. The series can be described thus: MTT cytotoxicity assay. Type of series: cell-based. The settings on record: 72 hours. The procedure:
as §1

In series [3] the test system is human prostate cancer LNCaP cells. The series can be described thus: MTT cytotoxicity assay. Type of series: cell-based. The settings on record: 72 hours. The procedure: as §1
The test system of series [4] is human leukemia MOLT-4 cells. In words: MTT cytotoxicity assay. Type of series: cell-based. The procedure: as §1
(§2) The in vitro cytotoxicity of COH29 towards a panel of human cancer cell lines was tested using the MTT assay described above.

Series [5] relates to normal fibroblast NHDF cells. The series can be described thus: MTT cytotoxicity assay. Type of series: cell-based, human. Particulars: 72 hours. The procedure: as §1
In the next series the test system is KBMDR. In words: in vitro cytotoxicity assay, multidrug resistant clone. Type of series: cell-based, human.
The next series deals with Leukemia CCRF-CEM. In words: MTT cytotoxicity assay. The settings on record: Homo sapiens. Type of series: cell-based. The procedure:
as §1, §2

The next series deals with Leukemia SUP B15. The series can be described thus: MTT cytotoxicity assay. Type of series: cell-based. Particulars: Homo sapiens. The procedure:
as §1, §2

A further series has as its system Ovarian Cancer OV 90. The series can be described thus: MTT cytotoxicity assay. Type of series: cell-based. The settings on record: Homo sapiens. The procedure: as §1, §2
For series [6], the system named is NCI 60 human cancer cell lines. In words: MTT cytotoxicity assay, panel of human cancer cell lines. The class given is cell-based. The procedure: as §1, §2
The nature of series [7]: single-dose pharmacokinetic evaluation in rats. The class given is in vivo, rat. The procedure: COH20 was injected into three male rats at 1 mg/kg for single-dose pharmacokinetic evaluation. […] More detailed pharmacokinetic studies will be performed with various dosages of COH20 to establish parameters such as clearance, bioavailability, and tissue/plasma partition coefficients.
Pharmacokinetic evaluation was performed on COH29 using the same techniques, with COH29 administered at a dosage of 25 mg/kg.

A further series has as its system intracellular RR. In words: intracellular RR activity in lysates of treated KB cells. The class given is cell-based, human. The settings on record: KB cells treated with 10 μM. The procedure: To confirm that the ability of COH20 to inhibit RR activity was not specific to recombinant RR, an assay was performed testing the effect of COH20 on intracellular RR. KB cells treated with 10 μM COH20 were lysed, and protein was extracted in a high salt buffer and passed through a G25 SEPHADEX® column to remove small molecules such as dNTP. The eluate was mixed with [^3H]CDP in reaction buffer to monitor RR activity. Treatment with COH20 decreased intracellular RR activity by approximately 50% (FIG. 7).

The test system of a further series is KBHURs. In words: in vitro cytotoxicity assay, HU-resistant clone. The class given is cell-based, human. Particulars: overexpresses RRM2. The procedure: as §1
In vitro cytotoxicity assays were repeated using KBHURs, an HU-resistant clone derived from KB cells that overexpresses RRM2. […] Similar experiments will be repeated using the gemcitabine resistant cell line KBGem, which also overexpresses RRM2.

The subject of series [8] is REH, MOLT-4, LNCaP and KB cancer cell lines. The series can be described thus: MTT cytotoxicity assay, cancer cell lines together. The class given is cell-based, human. The procedure:
as §1

Setting [9] is: RR activity, Table 1, read-out: IC50 ± S.D.
Setting [10] is: Homo sapiens, MOLT-4, 72 hours, Table 3, read-out: IC50 MOLT-4.
[11] abbreviates: rats, 25 mg/kg, individual analysis 1-3.

For the compound `Cl.O=c1oc2ccccc2c(O)c1C=Nc1nc(-c2ccc(O)c(O)c2)cs1` [NSC #659390], the “inhibition of native RRM1/RRM2 activity in vitro screen” value in [1] is listed as not below 80%.

For `NC(=O)NO` [HU, hydroxyurea, reference compound], the IC50 in series [1] (setting [9]) is 148 ± 7.34 µM; with human leukemia REH cells, 32.8 µM; in series [2], 300 µM; in [3], 280 µM; in series [4] (72 hours, Table 3, read-out: IC50 MOLT-4) it was 165 µM; in [5], more than 1000 µM. Further, the “concentration exhibiting cytotoxicity towards KBMDR cells” value with KBMDR is more than 1000 µM.

Consider `O=C(Nc1nc(-c2ccc(O)c(O)c2)cs1)c1ccccc1` [COH4], for which the IC50 in series [1] (setting [9]) was determined as 15.3 ± 1.8 µM; in the series with human leukemia REH cells (Homo sapiens, REH) it was 20.6 µM; in [2] (Homo sapiens, KB) it was 30.6 µM; in [3] (Homo sapiens, LNCaP), 23 µM; in series [4] (setting [10]) it was 11.8 µM; in series [5] (Homo sapiens, NHDF), 52.6 µM.

In the case of `O=C1C(Cl)=C(Nc2ccc(S(=O)(=O)Nc3ccccn3)cc2)C(=O)c2ccccc21` [NSC #45382], the “inhibition of native RRM1/RRM2 activity in vitro screen” value in series [1] is not below 80%.

Turning to `O=C(Nc1nc(-c2ccc(O)c(O)c2)c(-c2ccccc2)s1)c1ccc(O)c(O)c1` [COH29], the IC50 in the series with Leukemia CCRF-CEM was 2.8 µM; in the series with Leukemia SUP B15, 5 µM; in the series on Ovarian Cancer OV 90 it was 2.6 µM; in series [4] (Homo sapiens, MOLT-4, Table 4, read-out: IC50 Leukemia MOLT-4), 2.5 µM; in series [6] (except colon cancer HT29, melanoma UACC-257, ovarian cancer NCI/ADR-RES, renal cancer CAKI-1, read-out: IC50 in all cell types tested), less than 10 µM. Besides, the GI50 (in general, the concentration at which growth is held to half of that of the control) in [6] (except HT29, UACC-257, NCI/ADR-RES, CAKI-1) was less than 10 µM. For the same compound, the AUC (commonly concentration integrated over time) in series [7] (rat, plasma, intravenous, 25 mg/kg, rats, 25 mg/kg, Avg. of triplicate, read-out: AUC) is 3480 ng·h/mL; in series [7] (rat, plasma, intravenous, 25 mg/kg, rats, 25 mg/kg, individual analysis 1-3, read-out: AUC), 3670 ng·h/mL; in series [7] (setting [11]), 2861 ng·h/mL and 3918 ng·h/mL. Moreover, the maximum concentration (Cmax) (as a rule, the maximum level reached in the sampled fluid or tissue) in series [7] (rat, plasma, intravenous, 25 mg/kg, rats, 25 mg/kg, Avg. of triplicate, read-out: Cmax) is 27600 ng/mL; in series [7] (rat, plasma, intravenous, 25 mg/kg, rats, 25 mg/kg, individual analysis 1-3, read-out: Cmax), 31300 ng/mL; in series [7] (setting [11]), 26000 ng/mL and 25600 ng/mL. The half-life in series [7] (rat, plasma, intravenous, 25 mg/kg, rats, 25 mg/kg, Avg. of triplicate, read-out: T1/2 (converted)) was 2.67 h. Besides, in series [7] (rat, plasma, intravenous, 25 mg/kg, rats, 25 mg/kg, Avg. of triplicate, read-out: Vss), the Vd is 0.804 L/kg. Further, the clearance (usually the volume of plasma or blood freed of the substance per unit of time) in series [7] (rat, plasma, intravenous, 25 mg/kg, rats, Avg. of triplicate) was 122 mL/min/kg; in [7] (rat, plasma, intravenous, 25 mg/kg, rats, individual analysis 1-3), 114 mL/min/kg. Moreover, the Tmax (usually the time at which the peak concentration occurs) in series [7] (rat, plasma, intravenous, rats, 25 mg/kg, individual analysis 1-3) was 1.8 min. In addition, in [7] (setting [11]), the CL was 145.6 mL/min/kg and 106.4 mL/min/kg. Further, the T1/2 in series [7] (setting [11]) was 0.4 h and 7.6 h and 0.03 h. Besides, the Vss (in general, the apparent volume that relates the amount in the body to the concentration in plasma or blood) in series [7] (setting [11]) was 1.185 L/kg and 0.576 L/kg and 0.653 L/kg. The AUC dose dependence result in [7] (rats, i.v. bolus) is listed as “dose-dependent manner”.

With `O=C(Nc1nc(-c2ccc(O)c(O)c2)cs1)c1ccc(O)c(O)c1` [COH20], in series [1], the “inhibition of the recombinant RRM1/RRM2 complex in vitro” value is 90.2%. For the same compound, the IC50 stood at 9.3 ± 2.3 µM in series [1] (setting [9]); 9.31 ± 2.3 µM in series [1] (Table 2, no added Fe, read-out: IC50 ± S.D. RRM1/RRM2); 2.54 µM with human leukemia REH cells (Homo sapiens, REH); 9.25 µM in series [2] (Homo sapiens, KB); 8.49 µM in series [3] (Homo sapiens, LNCaP); 5.26 µM in series [4] (setting [10]). The same compound came in with an IC50 in series [5] (Homo sapiens, NHDF) of 82.8 µM. For the same compound, the “decrease of intracellular RR activity” value with intracellular RR is “approximately 50%”. Also, the “cytotoxicity to KBHURs (in words)” value in the series on KBHURs is recorded as “cytotoxic to KBHURs at significantly lower concentrations than the other RR inhibitors tested”. The “concentration exhibiting cytotoxicity towards KBMDR cells” value in the series on KBMDR was found to be 80 µM. The “cytotoxicity to KBMDR (in words)” value in the series on KBMDR (overexpresses the MDR pump) is listed as “at lower concentrations than 3-AP or HU”. The half-life in series [7] (male, rat, plasma, other: injected, 1 mg/kg, three male rats, 1 mg/kg, plasma, read-out: terminal half-life (T1/2) (converted)) was approximately 5.5 h. Moreover, in series [8], the “concentration cytotoxic / growth inhibiting to the cancer cell lines” value is on record as “less than 10 μM”.

`NC(=S)NN=Cc1ncccc1N` [Compound 3-AP, 3-aminopyridine-2-carboxaldehyde thiosemicarbazone, reference compound]: the IC50 in series [1] (setting [9]) worked out at 1.2 ± 0.13 µM; in the series on human leukemia REH cells (Homo sapiens, REH), 1.42 µM; in series [2] (Homo sapiens, KB), 1.98 µM; in series [3] (Homo sapiens, LNCaP) it was 1.75 µM; in series [4] (setting [10]), 1.21 µM; in series [5] (Homo sapiens, NHDF), 7.35 µM. Further, the “concentration exhibiting cytotoxicity towards KBMDR cells” value with KBMDR came out at 200 µM.
